These results are taken from PubChem BioAssay AID1259407 (Chemical Carcinogenesis Research Information System (CCRIS), 2018).

The source made the active and inactive calls. No rule for the calls is given here.

For this data set, the system named is CCRIS mutagenicity, Ames/micronucleus/aberration tests. Description: CCRIS mutagenicity studies.
[1] abbreviates: Test System: AMES SALMONELLA TYPHIMURIUM, Strain/Indicator: TA98, Metabolic Activation: NONE, Method: STANDARD PLATE.
The mark [2] stands for this setting: Test System: AMES SALMONELLA TYPHIMURIUM, Strain/Indicator: TA98, Metabolic Activation: RAT, LIVER, S-9, AROCLOR 1254, Method: STANDARD PLATE.
[3] abbreviates: Test System: AMES SALMONELLA TYPHIMURIUM, Strain/Indicator: TA100, Metabolic Activation: NONE, Method: STANDARD PLATE.
The mark [4] stands for this setting: Test System: AMES SALMONELLA TYPHIMURIUM, Strain/Indicator: TA100, Metabolic Activation: RAT, LIVER, S-9, AROCLOR 1254, Method: STANDARD PLATE.
[5] abbreviates: Test System: AMES SALMONELLA TYPHIMURIUM, Strain/Indicator: TA1535, Metabolic Activation: NONE, Method: STANDARD PLATE.
[6] abbreviates: Test System: AMES SALMONELLA TYPHIMURIUM, Strain/Indicator: TA1535, Metabolic Activation: RAT, LIVER, S-9, AROCLOR 1254, Method: STANDARD PLATE.
Setting [7] is: Test System: AMES SALMONELLA TYPHIMURIUM, Strain/Indicator: TA1537, Metabolic Activation: NONE, Method: STANDARD PLATE.
[8] abbreviates: Test System: AMES SALMONELLA TYPHIMURIUM, Strain/Indicator: TA1537, Metabolic Activation: RAT, LIVER, S-9, AROCLOR 1254, Method: STANDARD PLATE.
[9] abbreviates: Test System: AMES SALMONELLA TYPHIMURIUM, Strain/Indicator: TA1538, Metabolic Activation: NONE, Method: STANDARD PLATE.
Setting [10] is: Test System: AMES SALMONELLA TYPHIMURIUM, Strain/Indicator: TA1538, Metabolic Activation: RAT, LIVER, S-9, AROCLOR 1254, Method: STANDARD PLATE.

In the case of `O=C([O-])[C@H](O)[C@@H](O)[C@H](O)[C@H](O)CO.O=C([O-])[C@H](O)[C@@H](O)[C@H](O)[C@H](O)CO.[Mn+2]`, the mutagenic call under setting [1] is “inactive; negative”; the mutagenic call under setting [2] is “inactive; negative”; the mutagenic call under setting [3] was “inactive; negative”; the mutagenic call under setting [4] was “inactive; negative”; the mutagenic call under setting [5] was “inactive; negative”; the mutagenic call under setting [6] is “inactive; negative”. In addition, the mutagenic call was “inactive; negative” under setting [7]; “inactive; negative” under setting [8]; “inactive; negative” under setting [9]; “inactive; negative” under setting [10]; “inactive; negative” (Test System: E. COLI, Strain/Indicator: WP2, Metabolic Activation: NONE, Method: STANDARD PLATE); “inactive; negative” (Test System: E. COLI, Strain/Indicator: WP2, Metabolic Activation: RAT, LIVER, S-9, AROCLOR 1254, Method: STANDARD PLATE).
With `C=C(C)CN(CC)c1c([N+](=O)[O-])cc(C(F)(F)F)cc1[N+](=O)[O-]`, the mutagenic call (End Point: In vitro chromasomal aberrations, Test System: Chinese hamster ovary (CHO) cells, Metabolic Activation: None) was “inactive; negative”; the mutagenic call (Test System: Ames Salmonella typhimurium, Strain/Indicator: TA98, Metabolic Activation: None, Method: Plate incorporation) is “inactive; negative”; the mutagenic call (Test System: Ames Salmonella typhimurium, Strain/Indicator: TA98, Metabolic Activation: Rat, Liver, S-9, Aroclor, Method: Plate incorporation) is “inactive; negative”; the mutagenic call (Test System: Ames Salmonella typhimurium, Strain/Indicator: TA100, Metabolic Activation: None, Method: Plate incorporation) was “inactive; negative”; the mutagenic call (Test System: Ames Salmonella typhimurium, Strain/Indicator: TA100, Metabolic Activation: Rat, Liver, S-9, Aroclor, Method: Plate incorporation) was “active; positive (weak response)”; the mutagenic call (Test System: Ames Salmonella typhimurium, Strain/Indicator: TA1535, Metabolic Activation: None, Method: Plate incorporation) is “inactive; negative”. Besides, the mutagenic call was “active; positive (weak response)” (Test System: Ames Salmonella typhimurium, Strain/Indicator: TA1535, Metabolic Activation: Rat, Liver, S-9, Aroclor, Method: Plate incorporation); “inactive; negative” (Test System: Ames Salmonella typhimurium, Strain/Indicator: TA1537, Metabolic Activation: None, Method: Plate incorporation); “inactive; negative” (Test System: Ames Salmonella typhimurium, Strain/Indicator: TA1537, Metabolic Activation: Rat, Liver, S-9, Aroclor, Method: Plate incorporation); “inactive; negative” (Test System: Ames Salmonella typhimurium, Strain/Indicator: TA1538, Metabolic Activation: None, Method: Plate incorporation); “inactive; negative” (Test System: Ames Salmonella typhimurium, Strain/Indicator: TA1538, Metabolic Activation: Rat, Liver, S-9, Aroclor, Method: Plate incorporation).
Turning to `O=C(O)c1ccc(N=Nc2ccc(O)c(C(=O)O)c2)cc1`, the mutagenic call reads like this: under setting [1], “inactive; negative”; under setting [2], “inactive; negative”; under setting [3], “inactive; negative”; under setting [4], “inactive; negative”; under setting [5], “inactive; negative”; under setting [6], “inactive; negative”. Moreover, the mutagenic call was “inactive; negative” under setting [7]; “inactive; negative” under setting [8]; “inactive; negative” under setting [9]; “inactive; negative” under setting [10]; “inactive; negative” (Test System: CHINESE HAMSTER V-79, Strain/Indicator: V-79 (HGPRT)/8-AZAGUANINE, Metabolic Activation: NONE); “inactive; negative” (Test System: CHINESE HAMSTER V-79, Strain/Indicator: V-79 (HGPRT)/8-AZAGUANINE, Metabolic Activation: RAT, LIVER, S-9).
For `CN(C)C(=O)c1nc2n(n1)-c1ccc(Cl)cc1C(c1ccccc1Cl)=NC2`, the mutagenic call is, setting by setting: under setting [1], “inactive; negative”; under setting [2], “inactive; negative”; under setting [3], “inactive; negative”; under setting [4], “inactive; negative”; (Test System: AMES SALMONELLA TYPHIMURIUM, Strain/Indicator: TA102, Metabolic Activation: NONE, Method: STANDARD PLATE) “inactive; negative”; (Test System: AMES SALMONELLA TYPHIMURIUM, Strain/Indicator: TA102, Metabolic Activation: RAT, LIVER, S-9, AROCLOR 1254, Method: STANDARD PLATE) “inactive; negative”. The mutagenic call by setting is: under setting [5], “inactive; negative”; under setting [6], “inactive; negative”; under setting [7], “inactive; negative”; under setting [8], “inactive; negative”; (Test System: E. COLI, Strain/Indicator: WP2 UVRA, Metabolic Activation: NONE, Method: STANDARD PLATE) “inactive; negative”; (Test System: E. COLI, Strain/Indicator: WP2 UVRA, Metabolic Activation: RAT, LIVER, S-9, AROCLOR 1254, Method: STANDARD PLATE) “inactive; negative”.
Take `CC(=O)ON(OC(C)C)C(=O)c1ccccc1`: the mutagenic call by setting is: under setting [3], “active; positive”; (Test System: AMES SALMONELLA TYPHIMURIUM, Strain/Indicator: TA100, Metabolic Activation: RAT, S-9, AROCLOR, Method: STANDARD PLATE) “active; positive”.
